Laboratory results as given in patent US8236339B2, “Therapeutic delivery of carbon monoxide” (priority 2001, dated 2012).
Entries after “also recorded” stand apart in the source; their conditions may differ.

Experiments:
[1] = Systemic blood pressure and heart rate in anaesthetised Sprague-Dawley rats; type: in vivo, rat; conditions: for HR, 60 μmol.kg^−1 / MAP, 60 μmol.kg^−1: directly after i.v. bolus 60 μmol/kg (cumulative 100); for HR, Baseline / MAP, Baseline: just before infusion of the compound
Experimental: Adult male Sprague-Dawley rats (280-350 g, 8-10 weeks of age) were bred in-house at the Northwick Park Institute for Medical Research (Harrow, UK). Rats were housed in groups of 3 in cages under a 12 h cycle of day/night, with free access to drinking water and fed ad libitum. All surgical procedures were performed in compliance with U.K. Home Office regulations. Rats were anaesthetised in a polycarbonate chamber in a stream of Enflurane™ (Abbot, UK) in oxygen before being transferred onto a mask and continuously supplied with Enflurane™ throughout the experiment with an anaesthetic machine (Aimed, UK). During the surgical procedure the rats were kept at a constant body temperature of 37° C. using a heat pad positioned underneath the operating surface. Specially designed femoral artery and venous catheters were then surgically implanted as previously described (see ref. 40). The catheter in the artery was connected via a luer connector and a three-way tap to a pressure transducer (Gould model P23ID, Statham, USA) for continuous mean arterial pressure (MAP) and heart rate (HR) monitoring. A purpose-built tail-cuff pressure transducer (ADInstruments, UK) was also placed on the tail of the rat and pressure transducer and tail cuff were connected to a polygraph recorder (Grass, Model 7D, Astra-med, UK) pre-calibrated in millimeters of mercury (mmHg). An analogue output provided data for a computer-based data acquisition system (PowerLab™, ADInstruments, UK). The computer-based system was set to record mean arterial pressure (MAP), in mmHg, and heart rate (HR), in beats/min (bpm), for the duration of the experiment. […] Once a stable pressure had been reached, each catheter was flushed with saline containing heparin and no further changes were made to the anaesthetic supply. Ru(CO)3Cl(glycinato) (CO-RM-3) was prepared in stock solutions of 20, 60 and 120 μmoles·ml^−1 by solubilizing the compound in saline. […] CO-RM-3 (or the negative control) was then infused into the animal via the femoral vein catheter as a bolus so that the final concentration infused was 10, 30 or 60 μmoles·kg^−1 body weight. Throughout the experiment MAP and HR were continuously recorded and monitored. Although concentrations of 10, 30 and 60 μmoles·kg^−1 were infused into each animal, the resulting concentrations in the animal were cumulative. Therefore, the final concentration attained in the animal was 10, 40 and 100 μmoles·kg^−1, respectively.
The results are presented in Table 2, where the data shown represents samples taken at baseline (just before infusion of the compound) and directly after administration of 10, 30 and 60 μmoles·kg^−1 of the compound. All data are mean i SEM. n=3 independent experiments. *P<0.05 vs. baseline.

[2] = test system: isolated rat hearts; conditions: for effect on L-NAME-mediated vasoconstriction / rise in CPP: L-NAME 25 μM perfusion
Experimental: Langendorff heart preparations were performed using male Lewis rats (300-350 g) as previously described by our group (35). […] (pH 7.4). Coronary perfusion pressure (CPP), a parameter indicative of coronary vessel contractility, was continuously measured by a pressure transducer connected to the aortic cannula and data analyzed with an Acknowledge software (BIOPAC System Inc.).
Hearts removed either from control rats (vehicle-treated) or from animals that were pre-treated with the heme oxygenase-1 inducer hemin (75 μmol/kg, i.p.) the day before, were initially equilibrated for 20 min on the Langendorff apparatus and then perfused with L-NAME (25 μM final concentration) to elicit vasoconstriction. The extent of CPP increase by L-NAME was also monitored over time in hemin-treated animals that received a heme oxygenase inhibitor (SnPPIX, 40 μmol/kg) 1 h prior to heart excision and in control hearts that were perfused with buffer supplemented with [Mn2(CO)10] (13 μM final concentration). Since [Mn2(CO)10] releases CO only by photodissociation, Krebs buffer containing [Mn2(CO)10] was exposed to a cold light source immediately before entering the aortic cannula.

[3] = L-NAME-induced increase in mean arterial pressure in anaesthetised Lewis rats; type: in vivo, rat; conditions: L-NAME 30 μmol/kg i.v.; [Ru(CO)3Cl2]2 60 μmol/kg i.v. 1 h before; hemin 75 μmol/kg i.p. 24 h before; SnPPIX 40 μmol/kg i.p.
Experimental: Lewis rats (280-350 g) were anaesthetised by intramuscular injection of 1 ml/kg Hypnorm (fentanyl 0.315 mg/ml and fluanisone 10 mg/ml) followed 5 min later by an intraperitoneal injection of 5 mg/kg diazepam. Specially designed femoral artery and venous catheters were then surgically implanted as previously described (40). The arterial cannula was connected to a Grass pressure transducer and blood pressure monitored continuously using a polygraph recorder. Experiments were conducted on anaesthetized animals and recordings were made within 30 min of the surgical procedure.
Control rats (vehicle-treated) and animals that were pre-treated with hemin (75 μmol/kg, i.p) 24 h prior to blood pressure monitoring were then administered with an intravenous injection of 30 μmol/Kg L-NAME to elicit an increase in mean arterial pressure. The extent of blood pressure increase by L-NAME was also monitored over time in hemin-treated animals that received SnPPIX (40 μmol/kg, i.p.) and in control rats previously injected with [Ru(CO)3Cl2]2 (60 μmol/kg, i.v.). In these two groups, SnPPIX or [Ru(CO)3Cl2]2 were administered to animals 1 h prior to L-NAME injection.

[4] = test system: Rat vascular smooth muscle cells; test: Cell viability of vascular smooth muscle cells (colorimetric assay); type: cell-based
Experimental: Rat vascular smooth muscle cells were obtained from the Coriell Cell Repository (Camden, N.J., USA) and grown in Dulbecco's […] (MEM) supplemented with 20% foetal calf serum, 2×MEM vitamins, 2×MEM non-essential and essential amino acids, penicillin (100 units/ml) and streptomycin (0.1 mg/ml). Confluent cells were treated with different concentrations of metal carbonyl (introduced as DMSO solution—see section B) for various times and cell viability was assessed using a colorimetric assay kit from Promega (Madison, Wis., USA) as previously described (47) after 3 or 24 h incubation, or after 3 h exposure to the agents followed by 21 h incubation in complete media. Results are expressed as the mean±s.e.m. of 6 independent experiments and differences were considered statistically significant at P<0.05 (*).

[5] = test system: deoxymyoglobin (deoxy-Mb); test: Myoglobin assay: conversion of deoxy-Mb to MbCO on direct addition of metal carbonyl; type: biochemical, horse; conditions: for MbCO formation / CO release when added directly to deoxy-Mb solution: direct addition to myoglobin solution (66 μM), no light
Experimental: The release of CO from metal carbonyl complexes was assessed spectrophotometrically by measuring the conversion of deoxymyoglobin (deoxy-Mb) to carbonmonoxy myoglobin (MbCO). MbCO has a distinctive absorption spectrum between 500 and 600 nm, and changes at 540 nm were used to quantify the amount of CO liberated. Myoglobin solutions (66 μM final concentration) were prepared freshly by dissolving the protein in 0.04 M phosphate buffer (pH 6.8). Sodium dithionite (0.1%) was added to convert myoglobin to deoxy-Mb prior to each reading. All the spectra were measured using a Helios a spectrophotometer.
Various metal carbonyl complexes were tested for their ability to elicit MbCO formation when added directly to a deoxy-Mb solution. To different extents, [Ru(CO)3Cl2]2, [Ru(CO)2(DMSO)2Cl2], [Ru(CO)3Cl2(cytosine)] and […] all released CO when added directly to the Mb solution.
The metal carbonyl complex was solubilized in DMSO (9.7 mM stock solution), aliquots of 2 to 32 μl were added directly to 1 ml of deoxy-Mb solutions (66 μM) and absorption spectrum determined immediately after mixing the samples by inversion.

[6] = test system: aortic rings pre-contracted with phenylephrine; test: Relaxation of isolated aortic rings pre-contracted with phenylephrine; set-up: species or system rat; conditions: for vasodilatory effect on pre-contracted aortic rings (in words): consecutive additions; for % Relaxation, 1st addition / % Relaxation, 2nd addition / % Relaxation, 3rd addition: cumulative doses, phenylephrine 3 μM
Experimental: Transverse ring sections of thoracic aorta were isolated from male Lewis rats and suspended under a 2 g tension in an organ bath containing oxygenated Krebs-Henseleit buffer at 37° C. as previously described (23). The relaxation response to cumulative doses of metal carbonyl (dissolved in DMSO—see section 2) was assessed in aortic rings pre-contracted with phenylephrine (3 μM). Control rings were similarly treated by adding equal doses of DMSO (vehicle) to the organ bath.

[7] = directly after i.v. bolus 10 μmol/kg
[8] = directly after i.v. bolus 30 μmol/kg (cumulative 40)

Compound: CS(C)=O.CS(C)=O.CS(C)=O.CS(C)=O.[Cl][Ru][Cl] [Cis-RuCl2(DMSO)4, reference compound]
- effects on HR or MAP (in words) ([1]; 10, 30 or 60 μmoles·kg^−1): no significant effects on either HR or MAP
- marginal increase in MAP during the administration of each bolus ([1]; believed to be a volume effect, also seen with saline): 5.5±1 mmHg
- HR, 10 μmol.kg^−1 [1, 7]: 255 ± 6 bpm
- MAP, 10 μmol.kg^−1 [1, 7]: 82 ± 4 mmHg
- HR, 30 μmol.kg^−1 [1, 8]: 256 ± 8 bpm
- MAP, 30 μmol.kg^−1 [1, 8]: 79 ± 5 mmHg
- HR, 60 μmol.kg^−1 [1]: 256±9 bpm
- MAP, 60 μmol.kg^−1 [1]: 81±4 mmHg
- HR, 60 μmol.kg^−1 ([1]; listed as Cts-RuCl2(DMSO)4): 256 ± 9 bpm
- MAP, 60 μmol.kg^−1 ([1]; listed as Cts-RuCl2(DMSO)4): 81± 4 mmHg
- HR, Baseline [1]: 257±7 bpm
- MAP, Baseline [1]: 80±2 mmHg
- HR, Baseline ([1]; listed as Cts-RuCl2(DMSO)4): 257 ± 7 bpm
- MAP, Baseline ([1]; listed as Cts-RuCl2(DMSO)4): 80 ± 2 mmHg

Compound: COC(=O)[C@@H](N)CCCNC(=N)N[N+](=O)[O-] [L-NAME, N^G-nitro-L-arginine methyl ester]
- maximum increase in CPP ([2]; L-NAME 25 μM, after 30 min): 3 fold
- effect on L-NAME-induced increase in blood pressure [3]: rapid and significant increase in blood pressure

Compound: O.[Cl][Ru]([Cl])[Cl] [RuCl3, ruthenium(III) chloride hydrate, reference compound]
- decrease in cell viability over time ([4]; equivalent molar concentrations of ruthenium): did not cause any appreciable decrease in cell viability

Compound: C=Cc1c2[n-]c(c1C)/C=c1\[n-]/c(c(C)c1C=C)=C\c1[n-]c(c(CCC(=O)O)c1C)C=c1[n-]/c(c(C)c1CCC(=O)O)=C\2.[Sn+4] [SnPPIX, tin protoporphyrin IX]
- effect on L-NAME-mediated vasoconstriction / rise in CPP [2]: the effect of hemin was completely reversed
- effect on L-NAME-induced increase in blood pressure [3]: totally reversed

Compound: [C-]#[O+].[C-]#[O+].[C-]#[O+].[C-]#[O+].[C-]#[O+].[C-]#[O+].[Cl][Ru][Cl].[Cl][Ru][Cl] [[Ru(CO)3Cl2]2, tricarbonyldichlororuthenium (II) dimer]
- moles of CO liberated for each mole of compound ([5]; 9.7 mM DMSO stock, 2 to 32 μl added to 1 ml deoxy-Mb 66 μM, linear regression of MbCO saturation curve): approximately 0.7 moles
- MbCO formation / CO release when added directly to deoxy-Mb solution [5]: released CO
- cell viability ([4]; 3 h exposure followed by additional 21 h incubation in complete medium): well preserved
- cytotoxicity ([4]; 3 h treatment, 0-420 μM final concentration): did not promote any detectable cytotoxicity
- loss in cell viability ([4]; prolonged exposure (24 h), very high concentrations (>400 μM)): > 50%
- extent of relaxation after the first addition, more than control ([6]; 222 μM final concentration): 45%
- phenylephrine-induced contraction after extensive washing ([6]; after extensive washing, restored in control but not in treated vessels): produces long-lasting effects
- vasodilatory effect on pre-contracted aortic rings (in words) [6]: rapid and significant vasodilatation
- % Relaxation, 1st addition [6]: 49.9 ± 2.7 %
- % Relaxation, 2nd addition [6]: 66.2 ± 3.2 %
- % Relaxation, 3rd addition [6]: 74.1 ± 4.1 %
- effect on L-NAME-induced increase in blood pressure [3]: markedly suppressed

Compound: [Fe(SPh)2(2,2′-bipyridine)(CO)2]
- MbCO formation / CO release when added directly to deoxy-Mb solution [5]: did not release any detectable CO to myoglobin; also recorded: No MbCO was detected
- vasodilatory effect on pre-contracted aortic rings (in words) [6]: very effective in promoting vasorelaxation
- % Relaxation, 1st addition [6]: 50.8%
- % Relaxation, 2nd addition [6]: 60.5%
- % Relaxation, 3rd addition [6]: 75%

Compound: [Fe(SPh)2(H2NCH2CH2NH2)(CO)2]
- MbCO formation / CO release when added directly to deoxy-Mb solution [5]: No MbCO was detected
- vasodilatory effect on pre-contracted aortic rings (in words) [6]: less evident
- % Relaxation, 1st addition [6]: 11%
- % Relaxation, 2nd addition [6]: 24.6%
- % Relaxation, 3rd addition [6]: 29.3%

Compound: [Ru(CO)2(DMSO)2Cl2]
- MbCO formation / CO release when added directly to deoxy-Mb solution [5]: released CO
- vasodilatory effect on pre-contracted aortic rings (in words) [6]: produced vasodilatation although the effect was less pronounced compared to [Ru(CO)3Cl2]2
- % Relaxation, 1st addition [6]: 1.6%
- % Relaxation, 2nd addition [6]: 16%
- % Relaxation, 3rd addition [6]: 35%

Compound: [Ru(CO)3Cl2(cytosine)]
- MbCO formation / CO release when added directly to deoxy-Mb solution [5]: released CO
- vasodilatory effect on pre-contracted aortic rings (in words) [6]: did not demonstrate any effect
- % Relaxation, 1st addition [6]: 3.2%
- % Relaxation, 2nd addition [6]: 10.3%
- % Relaxation, 3rd addition [6]: 12.6%

Compound: manganese chloride
- effect on L-NAME-mediated vasoconstriction / rise in CPP [2]: had no effect on myocardial CPP
